Laboratory results reported in US7468393B2, “Diarylsulfones as 5-HT2A antagonists” (Merck Sharp & Dohme Ltd., priority 2004, dated 2008).

## C[C@H](O)c1ccccc1S(=O)(=O)c1ccc(/C=C/c2ccc(F)cc2)cc1 [Example 135, (1S)-1-[2-({4-[(E)-2-(4-fluorophenyl)vinyl]phenyl}sulfonyl)phenyl]ethanol]
  melting point: 75 °C
